Data published in the supplement of paper PMC11451515.

Test system: NOMO1
Assay: cell viability relative to DMSO control; higher = less cytotoxic
Conditions: 48 h
In short: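 Viability is expressed as a percentage of DMSO wells within each plate, and cell-free wells serve as background. Seeding densities in the 1536-well plates (5 μl) were 500 cells/well for NOMO1 or SEM leukemia cells and 1000 cells/well for P12-Ichikawa. Each line was adapted for at least four passages in each medium. Library compounds in DMSO were pin-dosed at 47 μM to 0.79 nM (11 points, threefold), and CellTiter-Glo One luminescence was read after 48 h at 37°C.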

[1] = RPMI 5 mM glucose + 10% FBS, 0.000781 µM
[2] = RPMI 5 mM glucose + 10% FBS, 0.00234 µM
[3] = RPMI 5 mM glucose + 10% FBS, 0.00702 µM
[4] = RPMI 5 mM glucose + 10% FBS, 0.0211 µM
[5] = RPMI 5 mM glucose + 10% FBS, 0.0632 µM
[6] = RPMI 5 mM glucose + 10% FBS, 0.19 µM
[7] = RPMI 5 mM glucose + 10% FBS, 0.569 µM
[8] = RPMI 5 mM glucose + 10% FBS, 1.71 µM
[9] = RPMI 5 mM glucose + 10% FBS, 5.12 µM
[10] = RPMI 5 mM glucose + 10% FBS, 15.4 µM
[11] = RPMI 5 mM glucose + 10% FBS, 46.1 µM
[12] = HPLM + 10% dialyzed FBS, 0.000781 µM
[13] = HPLM + 10% dialyzed FBS, 0.00234 µM
[14] = HPLM + 10% dialyzed FBS, 0.00702 µM
[15] = HPLM + 10% dialyzed FBS, 0.0211 µM
[16] = HPLM + 10% dialyzed FBS, 0.0632 µM
[17] = HPLM + 10% dialyzed FBS, 0.19 µM
[18] = HPLM + 10% dialyzed FBS, 0.569 µM
[19] = HPLM + 10% dialyzed FBS, 1.71 µM
[20] = HPLM + 10% dialyzed FBS, 5.12 µM
[21] = HPLM + 10% dialyzed FBS, 15.4 µM
[22] = HPLM + 10% dialyzed FBS, 46.1 µM
[23] = RPMI 5 mM glucose + 10% dialyzed FBS, 0.000781 µM
[24] = RPMI 5 mM glucose + 10% dialyzed FBS, 0.00234 µM
[25] = RPMI 5 mM glucose + 10% dialyzed FBS, 0.00702 µM
[26] = RPMI 5 mM glucose + 10% dialyzed FBS, 0.0211 µM
[27] = RPMI 5 mM glucose + 10% dialyzed FBS, 0.0632 µM
[28] = RPMI 5 mM glucose + 10% dialyzed FBS, 0.19 µM
[29] = RPMI 5 mM glucose + 10% dialyzed FBS, 0.569 µM
[30] = RPMI 5 mM glucose + 10% dialyzed FBS, 1.71 µM
[31] = RPMI 5 mM glucose + 10% dialyzed FBS, 5.12 µM
[32] = RPMI 5 mM glucose + 10% dialyzed FBS, 15.4 µM
[33] = RPMI 5 mM glucose + 10% dialyzed FBS, 46.1 µM

Compound	cell viability [1] [%]	cell viability [2] [%]	cell viability [3] [%]	cell viability [4] [%]	cell viability [5] [%]	cell viability [6] [%]	cell viability [7] [%]	cell viability [8] [%]	cell viability [9] [%]	cell viability [10] [%]	cell viability [11] [%]	cell viability [12] [%]	cell viability [13] [%]	cell viability [14] [%]	cell viability [15] [%]	cell viability [16] [%]	cell viability [17] [%]	cell viability [18] [%]	cell viability [19] [%]	cell viability [20] [%]	cell viability [21] [%]	cell viability [22] [%]	cell viability [23] [%]	cell viability [24] [%]	cell viability [25] [%]	cell viability [26] [%]	cell viability [27] [%]	cell viability [28] [%]	cell viability [29] [%]	cell viability [30] [%]	cell viability [31] [%]	cell viability [32] [%]	cell viability [33] [%]
N[C@@H](Cc1ccc(N(CCCl)CCCl)cc1)C(=O)O	124	130	123	142	150	140	137	137	124	44.8	23.8																						
COCCNCCCn1c(C(=O)CF)c(-c2ccc(C)cc2)c2c(N)ncnc21	103	88	88.5	93.1	98	93.5	88.5	88.7	88.5	97.4	107	94.7	120	98.5	88.7	117	107	108	98	105	105	93.9	96.8	101	105	99.4	93.3	86.9	99.4	95.6	83.7	93	101
N[S+](=O)([O-])c1cc2c(cc1Cl)NCN[S+]2(=O)[O-]	108	109	114	109	101	113	119	117	117	112	98.8	111	97.3	105	109	122	111	122	121	103	105	102	109	101	112	106	122	136	117	124	111	112	101
O=C1C(CCC(O)c2ccc(F)cc2)C(c2ccc(O)cc2)N1c1ccc(F)cc1 (stereo not given)	114	114	108	106	110	120	112	122	122	130	127	111	104	123	124	113	132	133	132	146	132	47.5	101	98.9	107	113	92.7	118	111	103	117	106	103
